In the NIST ThermoML archive (doi:10.1016/j.jct.2012.08.030):
Numbers after ± are expanded uncertainties.

Assays:
[1] = refractive index (Na D-line) (dimensionless); details: 101.33 kPa, Liquid, Standard Abbe refractometry
[2] = 101.3 kPa, Liquid; for speed of sound: Sing-around technique in a fixed-path interferometer; for mass density: Vibrating tube method
[3] = xn = mol fraction of the nth substance listed; details: 101.3 kPa, Liquid, x2 = 0; for speed of sound: Sing-around technique in a fixed-path interferometer; for mass density: Vibrating tube method
[4] = refractive index (Na D-line) (dimensionless); xn = mol fraction of the nth substance listed; details: 101.3 kPa, Liquid, Standard Abbe refractometry, x2 = 0

CCCCn1cc[n+](C)c1.COS(=O)(=O)[O-] [1-butyl-3-methylimidazolium methyl sulfate]
Details | mass density, [2] [kg/m3] | refractive index, [1] | speed of sound, [2] [m/s]
298.15 K | 1212.06 ± 2.8 | 1.47824 ± 0.00068 | 1654.6 ± 3.1
303.15 K | 1208.7 ± 2.8 | 1.47704 ± 0.00068 | 1642.2 ± 3.1
308.15 K | 1205.35 ± 2.8 | 1.47577 ± 0.00068 | 1630 ± 3.1
313.15 K | 1202.01 ± 2.8 | 1.47443 ± 0.00068 | 1617.9 ± 3.1

CCCCO [butan-1-ol]
Details | mass density, [2] [kg/m3] | refractive index, [1] | speed of sound, [2] [m/s]
298.15 K | 805.93 ± 0.24 | 1.39747 ± 0.00037 | 1239.3 ± 1.2
303.15 K | 802.088 ± 0.24 | 1.39549 ± 0.00037 | 1222.9 ± 1.2
308.15 K | 798.214 ± 0.24 | 1.39342 ± 0.00037 | 1206.3 ± 1.2
313.15 K | 794.301 ± 0.24 | 1.39138 ± 0.00037 | 1189.7 ± 1.2

CCCCO [butan-1-ol] + CCCCn1cc[n+](C)c1.COS(=O)(=O)[O-]
Details | mass density, [3] [kg/m3] | refractive index, [4] | speed of sound, [3] [m/s]
298.15 K | 805.93 ± 0.24 | 1.39747 ± 0.00037 | 1239.3 ± 1.2
303.15 K | 802.088 ± 0.24 | 1.39549 ± 0.00037 | 1222.9 ± 1.2
308.15 K | 798.214 ± 0.24 | 1.39342 ± 0.00037 | 1206.3 ± 1.2
313.15 K | 794.301 ± 0.24 | 1.39138 ± 0.00037 | 1189.7 ± 1.2

CO [methanol]
Details | mass density, [2] [kg/m3] | refractive index, [1] | speed of sound, [2] [m/s]
298.15 K | 787.405 ± 0.12 | 1.3272 ± 0.00031 | 1104.3 ± 0.59
303.15 K | 782.688 ± 0.12 | 1.32552 ± 0.00031 | 1088.3 ± 0.59
308.15 K | 777.941 ± 0.12 | 1.32362 ± 0.00031 | 1072 ± 0.58
313.15 K | 773.168 ± 0.12 | 1.32171 ± 0.00031 | 1055.9 ± 0.58

CO [methanol] + CCCCn1cc[n+](C)c1.COS(=O)(=O)[O-]
Details | mass density, [3] [kg/m3] | refractive index, [4] | speed of sound, [3] [m/s]
298.15 K | 787.405 ± 0.12 | 1.3272 ± 0.00031 | 1104.3 ± 0.59
303.15 K | 782.688 ± 0.12 | 1.32552 ± 0.00031 | 1088.3 ± 0.59
308.15 K | 777.941 ± 0.12 | 1.32362 ± 0.00031 | 1072 ± 0.58
313.15 K | 773.168 ± 0.12 | 1.32171 ± 0.00031 | 1055.9 ± 0.58

CCCO [propan-1-ol]
Details | mass density, [2] [kg/m3] | refractive index, [1] | speed of sound, [2] [m/s]
298.15 K | 800.008 ± 0.14 | 1.38334 ± 0.00033 | 1205.9 ± 0.8
303.15 K | 795.97 ± 0.14 | 1.38131 ± 0.00033 | 1189.3 ± 0.8
308.15 K | 791.892 ± 0.14 | 1.37926 ± 0.00033 | 1172.4 ± 0.79
313.15 K | 787.772 ± 0.14 | 1.37722 ± 0.00033 | 1155.5 ± 0.79

CCCO [propan-1-ol] + CCCCn1cc[n+](C)c1.COS(=O)(=O)[O-]
Details | mass density, [3] [kg/m3] | refractive index, [4] | speed of sound, [3] [m/s]
298.15 K | 800.008 ± 0.14 | 1.38334 ± 0.00033 | 1205.9 ± 0.8
303.15 K | 795.97 ± 0.14 | 1.38131 ± 0.00033 | 1189.3 ± 0.8
308.15 K | 791.892 ± 0.14 | 1.37926 ± 0.00033 | 1172.4 ± 0.79
313.15 K | 787.772 ± 0.14 | 1.37722 ± 0.00033 | 1155.5 ± 0.79

CC(C)O [propan-2-ol]
Details | mass density, [2] [kg/m3] | refractive index, [1] | speed of sound, [2] [m/s]
298.15 K | 781.123 ± 0.15 | 1.37527 ± 0.00033 | 1138.7 ± 0.78
303.15 K | 776.845 ± 0.15 | 1.37314 ± 0.00033 | 1121.4 ± 0.78
308.15 K | 772.487 ± 0.15 | 1.37093 ± 0.00033 | 1103.9 ± 0.77
313.15 K | 768.053 ± 0.15 | 1.3687 ± 0.00033 | 1086.6 ± 0.77

CC(C)O [propan-2-ol] + CCCCn1cc[n+](C)c1.COS(=O)(=O)[O-]
Details | mass density, [3] [kg/m3] | refractive index, [4] | speed of sound, [3] [m/s]
298.15 K | 781.123 ± 0.15 | 1.37527 ± 0.00033 | 1138.7 ± 0.78
303.15 K | 776.845 ± 0.15 | 1.37314 ± 0.00033 | 1121.4 ± 0.78
308.15 K | 772.487 ± 0.15 | 1.37093 ± 0.00033 | 1103.9 ± 0.77
313.15 K | 768.053 ± 0.15 | 1.3687 ± 0.00033 | 1086.6 ± 0.77
